This is an account of results in patent publication US20040086965A1, “Casein peptide fragments with growth-influencing activity on cell cultures” (priority 2000, published 2004).

The assay has as its system IPLB-Sf-21 cells. The experiment in a line: Determination of the biological activity of the peptides: cell count of serum-weaned IPLB-Sf-21 cultures after four days with peptide. The assay is classed as cell-based, Spodoptera frugiperda. Particulars: for peptide concentration at which the maximum growth-promoting effect was achieved: serum-free TC100 medium; for Rel. yield: IPLB-Sf-21, TC100 medium, 4 days. As to the method:
IPLB-Sf-21 cells (ACC1 19, DSMZ in Braunschweig, Germany) were obtained from Dr. Victor Romanowski (Instituto de Bioquímica y Biología Molecular, Facultad de Ciencias Exactas, Universidad Nacional de la Plata, República Argentina) and maintained at 28° C. in TC-100 medium (Gibco/Life Technologies, Grand Island, N.Y., USA) containing 10% foetal calf serum (FCS, SIGMA, St. Louis, Mo., USA).
IPLB-Sf-21 cells were sown at a starting density of 5×10^4 cells in 1 ml of culture medium (TC-100+10% FCS) in the individual wells of 24-well culture plates. The plates were incubated at 27° C. for two days in a humidified chamber. During the following two days, the cultures were weaned off the serum additive by replacing the medium several times with pure TC100 medium and were then provided with the peptides or peptide fractions at various concentrations. Control cultures were cultivated in pure TC100 medium.
Four days later, the cells were harvested by being scraped off carefully. The cell count per culture well was determined by counting in a Neubauer chamber with an inverted microscope. The Neubauer chamber had two regions for counting. Each sample was counted three times in each of the two regions (six values per sample).

Regarding AC-HQP-OH [Tripeptide], the “peptide concentration at which the maximum growth-promoting effect was achieved” value (IPLB-Sf-21 cells) was determined as 0.1 µg/mL. In addition, the Rel. yield worked out at 1.251 (Tripeptide concentration 0.01 μg/ml, cell yield relative to cultures without peptide and without FCS); 1.345 (Tripeptide concentration 0.1 μg/ml, cell yield relative to cultures without peptide and without FCS); 1.101 (Tripeptide concentration 1 μg/ml, cell yield relative to cultures without peptide and without FCS); 1.030 (Tripeptide concentration 10 μg/ml, cell yield relative to cultures without peptide and without FCS); 0.826 (Tripeptide concentration 100 μg/ml, cell yield relative to cultures without peptide and without FCS). For the same substance, under “very high concentrations, IPLB-Sf-21 cells”, the “concentrations resulting in growth inhibition” value is more than 10 µg/mL.
Consider Ac-HQPHQPLPPT-OH [Decapeptide], for which the Rel. yield is given as 1.051 (Decapeptide concentration 0.01 μg/ml, cell yield relative to cultures without FCS); 1.182 (Decapeptide concentration 0.1 μg/ml, cell yield relative to cultures without FCS); 1.272 (Decapeptide concentration 1 μg/ml, cell yield relative to cultures without FCS); 1.175 (Decapeptide concentration 10 μg/ml, cell yield relative to cultures without FCS); 0.866 (Decapeptide concentration 100 μg/ml, cell yield relative to cultures without FCS). Where the note is “IPLB-Sf-21 cells”, the “peptide concentration at which the maximum growth-promoting effect was achieved” value came to 1 µg/mL. The “effect of higher concentrations on cell growth” value (concentrations higher than 1 μg/ml, IPLB-Sf-21 cells) is listed as “growth inhibition”.
